Reference: patent US20250163122A1, “COMPOSITIONS AND METHODS FOR TREATING AIRWAY MUCUS DYSFUNCTION” (BOARD OF REGENTS, THE UNIVERSITY OF TEXAS SYSTEM, priority 2022, published 2025)
Bridges are numbered along the chain shown (N, C = ends). Where no end group is shown, it is not given here. [ ]: non-standard residue; d: D form. S5 = C=CCCC[C@](C)(N)C(=O)O

What was measured:
[1] = tested on: Muc5ac secretion from HAECs; assay: Mucin (Muc5ac) secretion assay in HAECs; assay type: cell-based, human; details: for effect on stimulated secretion / reduction of stimulated (IL-13+ATP) Muc5ac secretion: 10 μM peptide, 30 min pre-incubation, metaplastic conditions; for reduction of stimulated Muc5ac secretion: metaplastic HAECs
Procedure: Cell culture. […] Growth medium was replaced every two days. […] The apical medium was replaced after 48 h.
Mucin secretion assay in HAECs. […] In brief, for the 24 h peptide treatment, 20 μl of DMEM+/−100 μM peptides was added to the apical surface 24 h before stimulation. On the day of the assay, cells were washed 5 times with 100 μl DMEM for 1 h for each wash on the apical side. Apical supernatants were collected after every wash ([…]), then 100 μl of DMEM+/−100 μM peptides was added to the apical surface and HAECs incubated for 15 min before collecting the supernatant (baseline wash). HAECs were then incubated for an additional 15 min with 100 μl DMEM+/−100 μM ATP (Sigma) before collection of supernatants (experimental washes). Following sample collection, cells were lysed in 100 μl of lysis buffer (lysate) containing 50 mM Tris-HCl pH 7.2, 1 mM EDTA, 1 mM EGTA, 1% Triton-X (Sigma), protease inhibitor cOmplete mini EDTA-free and phosphatase inhibitor PhosSTOP (Roche, Germany). The protocol was adapted for 30 min peptide treatment as follows. After wash 5, 100 μl of DMEM+/−10 μM or 100 μM of peptides was added to the apical surface and HAECs incubated for 30 min (baseline wash). HAECs were then incubated for 30 min with 100 μl DMEM+/−100 μM ATP to collect experimental washes.
All samples were diluted 1:10 in PBS (washes and cell lysates) and 50 μl of each sample were vacuum-aspirated onto a 0.45 μm pore nitrocellulose membrane using the Bio-Dot® MicrofiltrationApparatus (Bio-Rad). […] All steps were performed at room temperature. Fluorescent signals were acquired using the Odyssey® Fc Imaging System (Li-Cor®, USA) and quantified using ImageJ (v.2.0.0; NIH, USA). Equal volumes of samples were loaded on the gels for control and peptide treatments. […] Stimulated secretion is therefore normalized to baseline secretion within individual filters to account for filter to filter heterogeneities.

[2] = tested on: mouse airway epithelial cells; assay: Mucin secretion without secretagogue after peptide aerosol in mice with mucous metaplasia; assay type: in vivo
Procedure: To investigate whether SP9 could have therapeutic benefit in vivo, SP9 conjugated to CPPs and fluorophores was introduced into mouse airways using a microsprayer inserted into the distal trachea under direct visualization with a laryngoscope. […] All subsequent studies of airway mucin secretion were therefore performed in the distal axial bronchus. […] This effect was not observed with the injection of buffer alone.
The peptide solution was injected into the airway under pressure to generate a droplet aerosol. A high concentration of peptides was used in these experiments in part because the solution is expected to be in contact with the airway epithelium only briefly and to mostly end up in the alveolar region.

[3] = tested on: fractional secretion of intracellular mucin in mouse airways; assay: Stimulated mucin secretion in mice (IL-13, then methacholine); assay type: in vivo; details: pretreatment, aerosol 200 μM 30 min before secretagogue, IL-13 mice
Procedure: Mucin secretion and airway mucus occlusion in mice. The efficiency of stimulated mucin secretion and the extent of mucus accumulation in the airway lumen of Syt2 mutant mice were measured as described previously (Jaramillo et al, 2019). Briefly, to increase intracellular mucin content (i.e., induce mucous metaplasia), 3 μg IL-13 (BioLegend) in 40 μl PBS was instilled every other day×3 into the posterior pharynx of mice under isoflurane anesthesia to be aspirated during inhalation. […] Fractional mucin secretion was calculated as the percentage […] mucin content of mice of the same genotype treated only with IL-13. To measure intracellular airway epithelial mucin content, lungs were inflated via the trachea with 10% neutral buffered formalin to 20 cm water pressure for 24 h at 4° C., then embedded in paraffin. […] Images were acquired using an upright microscope (Olympus BX 60) with a ×40 NA 0.75 objective lens, and intracellular mucin was measured around the circumferential section of the axial bronchus using ImagePro (Media Cybernetics). Images were analyzed by investigators blinded to mouse genotype and treatment, and data are presented as the epithelial mucin volume density, signifying the measured volume of mucin overlying a unit area of epithelial baseline lamina. […]

[4] = tested on: airway lumenal mucus in mouse lung; assay: Airway lumenal mucus accumulation in mice; assay type: in vivo; details: pretreatment, aerosol 200 μM, IL-13 then methacholine
Procedure: To measure airway lumenal mucus content, mucous metaplasia was induced as above, then mucin secretion and bronchoconstriction were induced by exposure for 10 min to an aerosol of 150 mM methacholine. Lungs were harvested and fixed by immersion for 48 h at 4° C. to avoid displacement of lumenal mucus and using methanol-based Carnoy's solution (methacarn) for fixation to minimize changes in mucus volume. A single transverse 5 μm section was taken through the axial bronchus of the left lung between lateral branches 1 and 2 and stained with PAFS as above to evaluate intracellular mucin to ensure secretion had been stimulated. […]
To measure the efficiency of stimulated mucin secretion and the extent of mucus accumulation in the airway lumen of WT mice treated with peptides, the same procedures as those used for analysis of Syt2 mutant mice were followed, except that both outcomes were measured in the same mouse by fixation of the left lung by inflation with formalin to measure mucin secretion and fixation of the right lung by immersion in methacarn to measure mucus accumulation. […] In addition, a MicroSprayer Aerosolizer (Penn-Century) was used for peptide delivery to the airways, secretion was measured in the left axial bronchus at a site 3 mm distal to the site used in the Syt2 mutant mice, and mucus accumulation was measured in the right caudal lobe.

Syt1 C2B [5] = target: T1, Syt1 C2B (Homo sapiens (Human), UniProt P21579 272-422); assay: bulk fluorescence anisotropy, Cy3-labeled peptide with varying concentrations of unlabeled C2B; Hill fit with coefficient constrained to one
T1 construct: Expressed as a GST fusion in E. coli and the tag cleaved with PreScission protease; also called C2B domain of Syt1; Syt1C2B, aa 271-421

Syt2 C2B [6] = target: T2, Syt2 C2B (Rattus norvegicus (Rat), UniProt P29101 272-422); assay: as above
T2 construct: also called C2B domain of Syt2

Syt1 C2B [7] = target: T1, Syt1 C2B; assay: bulk fluorescence anisotropy, Cy3-labeled peptide with varying concentrations of C2B
Syt2 C2B [8] = target: T2, Syt2 C2B; assay: as above
[9] = 100 μM peptide for 24 h before stimulation

T1 sequence (P21579 272-422 limits assumed): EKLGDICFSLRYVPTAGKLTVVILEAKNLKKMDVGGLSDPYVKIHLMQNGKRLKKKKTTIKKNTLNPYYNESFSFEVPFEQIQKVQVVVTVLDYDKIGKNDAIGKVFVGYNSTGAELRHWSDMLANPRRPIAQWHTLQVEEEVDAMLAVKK
T2 sequence (P29101 272-422 limits assumed): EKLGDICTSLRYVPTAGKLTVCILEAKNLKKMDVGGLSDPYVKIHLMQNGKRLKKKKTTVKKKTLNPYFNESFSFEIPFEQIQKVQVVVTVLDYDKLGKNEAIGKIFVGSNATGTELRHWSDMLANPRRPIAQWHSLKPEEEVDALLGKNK

Ac-EE(S5)KDA(S5)IR(S5)LVM(S5)DEQ-(C/Cy3Mal)-amide (Ac-EE[S5]KDA[S5]IR[S5]LVM[S5]DEQC-NH2; staple 10-14, 3-7; also: Cy3 maleimide on C-terminal Cys) [SP9-Cy3]
effect on stimulated secretion [1]: no effect
effect on ATP-stimulated secretion [1, 9]: no effect

H2N-GRKKRRQRRRPPQEE(S5)KDA(S5)IR(S5)LVM(S5)DEQ-(C/Cy3Mal)-amide (H-GRKKRRQRRRPPQEE[S5]KDA[S5]IR[S5]LVM[S5]DEQ-{C(Cy3 maleimide)-NH2}; staple 16-20, 23-27) [TAT-SP9-Cy3]
reduction of stimulated (IL-13+ATP) Muc5ac secretion [1]: 86%
reduction of stimulated Muc5ac secretion [1, 9]: 83%
intracellular mucin content of cells that internalize the peptide ([2]; 300 μM aerosolized, left axial bronchus, IL-13 mouse, PAFS): low intracellular mucin content
mucin secretion after peptide aerosol without secretagogue ([2]; aerosolized 1 mM, left axial bronchus, IL-13 mice): extensive apocrine mucin secretion
mucin secretion of Cy3-labeled cells without a secretagogue (side-effect) ([2]; peptide introduced into airways of mice with mucous metaplasia): had secreted their mucin stores without stimulation

H2N-GRKKRRQRRRPPQEESKDAGIRTLVMLDEQ-(C/Cy3Mal)-amide (H-GRKKRRQRRRPPQEESKDAGIRTLVMLDEQ-{C(Cy3 maleimide)-NH2}) [TAT-P9-Cy3, non-stapled control peptide with TAT and Cy3, reference compound]
effect on stimulated secretion [1]: no effect

H2N-RQIKIWFQNRRMKWKKEE(S5)KDA(S5)IR(S5)LVM(S5)DEQ-(C/Cy3Mal)-amide [PEN-SP9-Cy3]
reduction of stimulated (IL-13+ATP) Muc5ac secretion [1]: 48%
reduction of stimulated Muc5ac secretion [1, 9]: 73%
reduction of fractional secretion of intracellular mucin stimulated by methacholine [3]: 82.3%
reduction of airway lumenal mucus accumulation in the right lung [4]: 33.1%
mucin secretion of Cy3-labeled cells without a secretagogue (side-effect) ([2]; mouse, in vivo): did not show this problem

H2N-RQIKIWFQNRRMKWKKEESKDAGIRTLVMLDEQ-(C/Cy3Mal)-amide (H-RQIKIWFQNRRMKWKKEESKDAGIRTLVMLDEQ-{C(Cy3 maleimide)-NH2}) [PEN-P9-Cy3, non-stapled control peptide with penetratin and Cy3, reference compound]
effect on stimulated secretion [1]: no effect
effect on fractional secretion of intracellular mucin stimulated by methacholine [3]: no effect
effect on airway lumenal mucus accumulation in the right lung [4]: no effect

B1: SP9-Cy3 (peptide)
peptide: Ac-EE[S5]KDA[S5]IR[S5]LVM[S5]DEQ
modifications: staple 10-14, 3-7; not fully specified (C-terminus); printed as Ac-EE(S5)KDA(S5)IR(S5)LVM(S5)DEQ-(C/Cy3Mal)-amide; also: Cy3 maleimide on C-terminal Cys
notes: Synthetic hydrocarbon-stapled peptide; This Cy3-labeled form was used in the bulk fluorescence anisotropy assay, diluted to 10 nM; also called Cy3 labeled SP9; Cy3-labeled SP9
Kd (Syt1 C2B [5]): 24 µM
Kd (Syt2 C2B [6]): 35 µM

B2: P0-Cy3 (peptide)
peptide: EESKDAGIRTLVMLDEQGEQLD-{C(Cy3 maleimide)-NH2}
notes: Labeled control peptide of the anisotropy assay; also called PO-Cy3; Cy3-labeled P0
binding result (Syt1 C2B [7]): no binding
binding result (Syt2 C2B [8]): no binding
